Assay results taken from patent publication US4923865A, “Substituted 1-(1H-imidazol-4-yl)alkyl-benzamides as anti-ischemics and as alpha-2-adrenergic receptor agonists” (U C B Societe Anonyme, priority 1988, dated 1990).
Like-named read-outs stand apart in the source and are kept apart here.

Key:
[1] = target: T1, presynaptic α2 -adrenergic receptors (Cavia porcellus, UniProt Q60474); test: Inhibition of the contraction of electrically stimulated guinea-pig ileum
T1 construct: Stimulation of a guinea-pig ileum; from tissue; host or cells: guinea-pig ileum longitudinal muscle strips
T1 sequence (Q60474 1-464): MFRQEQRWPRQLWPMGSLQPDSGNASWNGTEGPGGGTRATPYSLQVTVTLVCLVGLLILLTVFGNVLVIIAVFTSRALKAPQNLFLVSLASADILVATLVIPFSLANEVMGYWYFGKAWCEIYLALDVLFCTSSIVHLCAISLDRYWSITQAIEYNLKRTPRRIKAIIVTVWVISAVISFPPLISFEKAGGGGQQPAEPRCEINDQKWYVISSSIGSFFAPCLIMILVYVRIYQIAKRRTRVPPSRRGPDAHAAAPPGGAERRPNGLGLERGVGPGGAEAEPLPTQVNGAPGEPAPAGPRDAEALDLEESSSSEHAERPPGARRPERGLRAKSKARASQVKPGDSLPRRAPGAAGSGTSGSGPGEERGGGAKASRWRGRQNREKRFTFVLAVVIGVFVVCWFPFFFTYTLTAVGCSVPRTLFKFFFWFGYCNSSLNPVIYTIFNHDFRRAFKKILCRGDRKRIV
Excerpt: (c) Stimulation of a guinea-pig ileum. Longitudinal muscles strips attached to an isometric strain gauge are suspended in Tyrode's solution and are stretched under a tension of 1 g (G. M. DREW. Brit. J. Pharmacol. 64, (1978), 293-300; M. ANDREJAK et al., Naunyn-Schmiedelberg's Arch. Pharmacol. 314, (1980), 83-87).
Electrical stimulation of the parasympathetic nerves associated with the ileum fragments causes a contraction of the muscle. This contraction is reduced in the presence of a presynaptic α2 -agonist and the magnitude by which the contraction is reduced depends on the concentration of the agonist used. This effect is antagonized by the simultaneous presence of an α2 -antagonist such as α-yohimbine. The compounds to be studied have been tested at increasing concentrations ranging from 10^-10 to 10^-3 mole/l.
The concentration (IC50 in mole/l) that reduces by 50% the intensity of the contraction of the muscle is determined.
In the presence of α-yohimbine at a concentration of 10^-6 mole/l, the concentration of the compounds A or B, for example, that is required for reducing muscle contraction intensity by 50% is higher, and becomes greater than 10^-6 mole/l, which gives additional confirmation that the compounds of the invention act really at the level of the presynaptic α2 -adrenergic receptors.

[2] = Diuretic activity in beagle dogs (urine excretion); format: in vivo; conditions: for Mean relative increase in urine excretion: first three hours; for minimal effective dose: Canis lupus familiaris, iv, 3 h, i.v., read-out: minimum active dose that causes a statistically significant increase of the urine excretion
Protocol: 4. Diuretic activity. The diuretic activity of the compounds of the invention has been determined using beagle dogs (6 males and 6 females) be means of a 6-way randomized cross-over study.
The compounds to be studied are administered intravenously at increasing doses: 2, 6.5, 20, 65 and 200 μg/kg. During the first three hours following the injection, the volume of urine excreted is measured. Table VIII gives for compound A the mean relative increase in % of the volume of urine excreted with respect to the group of animals which have not received the compound.

Cl.NC(=O)c1cccc(Cc2c[nH]cn2)c1O [A, 2-hydroxyl-3-[(1H-imidazol-4-yl)methyl]-benzamide hydrochloride]
IC50 ([1]; guinea-pig ileum, electrical stimulation, read-out: IC50 (reduces by 50% the intensity of the contraction of the muscle)): 7 nM | IC50 ([1]; in the presence of 10^-6 mole/l of α-yohimbine, read-out: concentration required for reducing muscle contraction intensity by 50%): > 1000 nM | Mean relative increase in urine excretion ([2]; 2 μg/kg i.v., females, P < 0.05): 74% | Mean relative increase in urine excretion ([2]; 2 μg/kg i.v., males): 25% | Mean relative increase in urine excretion ([2]; 6.5 μg/kg i.v., females, P < 0.01): 291% | Mean relative increase in urine excretion ([2]; 6.5 μg/kg i.v., males, P < 0.05): 122% | Mean relative increase in urine excretion ([2]; 20 μg/kg i.v., females, P < 0.01): 531% | Mean relative increase in urine excretion ([2]; 20 μg/kg i.v., males, P < 0.01): 383% | Mean relative increase in urine excretion ([2]; 65 μg/kg i.v., females, P < 0.01): 804% | Mean relative increase in urine excretion ([2]; 65 μg/kg i.v., males, P < 0.01): 345% | Mean relative increase in urine excretion ([2]; 200 μg/kg i.v., females, P < 0.01): 988% | Mean relative increase in urine excretion ([2]; 200 μg/kg i.v., males, P < 0.01): 412% | minimal effective dose ([2]; females): ≤ 2 µg/kg | minimal effective dose ([2]; males): ≤ 6.5 µg/kg
